Article PMC5587309, “Involvement of arginine 878 together with Ca^2+ in mouse aminopeptidase A substrate specificity for N-terminal acidic amino-acid residues” (PLoS ONE, 2017)
Positions count from the first letter of the chain named. Like-named read-outs stand apart in the source and are kept apart here.

Columns and labels:
Assay type in all cases: biochemical
[1] = molecular target: T1, R878K mutated mAPA (Mus musculus, UniProt P16406, R878K); experiment: Inhibition of GluNA hydrolysis by purified recombinant R878K His-mAPA; conditions: R878K mAPA; for Ki: 0.5 mM GluNA, read-out: Ki
T1 construct: made in house; host or cells: stably transfected CHO-K1 cells
T1 sequence (P16406 1-945 R878K): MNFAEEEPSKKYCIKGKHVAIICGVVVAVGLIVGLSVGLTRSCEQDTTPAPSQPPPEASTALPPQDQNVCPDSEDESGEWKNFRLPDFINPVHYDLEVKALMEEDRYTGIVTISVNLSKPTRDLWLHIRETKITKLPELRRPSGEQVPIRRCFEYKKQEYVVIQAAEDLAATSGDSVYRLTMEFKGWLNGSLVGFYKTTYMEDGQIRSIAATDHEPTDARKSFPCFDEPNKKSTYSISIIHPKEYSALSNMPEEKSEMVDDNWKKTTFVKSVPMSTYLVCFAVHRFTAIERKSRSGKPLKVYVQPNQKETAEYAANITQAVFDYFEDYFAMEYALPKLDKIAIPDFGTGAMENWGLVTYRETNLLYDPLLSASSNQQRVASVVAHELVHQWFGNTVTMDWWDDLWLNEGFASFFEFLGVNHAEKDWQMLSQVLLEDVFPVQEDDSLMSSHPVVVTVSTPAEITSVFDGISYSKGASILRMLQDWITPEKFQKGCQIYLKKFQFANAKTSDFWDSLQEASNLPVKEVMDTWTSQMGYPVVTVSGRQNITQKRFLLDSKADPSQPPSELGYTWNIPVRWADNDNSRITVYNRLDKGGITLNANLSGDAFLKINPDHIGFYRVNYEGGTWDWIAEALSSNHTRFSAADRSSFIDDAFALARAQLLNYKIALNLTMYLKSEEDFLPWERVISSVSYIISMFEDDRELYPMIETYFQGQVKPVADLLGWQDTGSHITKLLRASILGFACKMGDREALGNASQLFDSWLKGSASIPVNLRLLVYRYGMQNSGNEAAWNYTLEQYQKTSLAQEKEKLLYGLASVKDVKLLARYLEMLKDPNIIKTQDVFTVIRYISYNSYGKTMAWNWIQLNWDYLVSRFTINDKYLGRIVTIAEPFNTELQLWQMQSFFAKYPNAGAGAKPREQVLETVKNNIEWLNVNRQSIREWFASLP
Protocol: (§1) Enzyme assays were carried out for wild-type and mutated His-mAPAs in 50 mM Tris-HCl buffer, pH 7.4, with or without 4 mM CaCl2, by monitoring the rate of hydrolysis of GluNA, as previously described. The sensitivity to Ca^2+ of purified wild-type and mutated His-mAPA was determinated by incubating 0.5 mM GluNA with 0 to 4 mM CaCl2 in a final volume of 100 μl of 50 mM Tris-HCl buffer, pH 7.4. All the assays were performed in black 96-well plates (solid black 96-well flat-bottomed non-treated plates with no lid; Corning Costar). All of the enzymatic studies were performed such that substrate hydrolysis rates were maintained below 10% (initial rate conditions). The kinetic curves were monitored by following the increase in fluorescence at 460 nm (lex = 330 nm), induced by the release of the β-naphthylamide fluorogenic part of the substrate by APA. Fluorescence signals were monitored by counting photons with a spectrophotometer (Fusion universal microplate analyser; Packard) equipped with a temperature control device and a plate shaker. The kinetic parameters (Km and kcat) were determined from Michaelis-Menten plots, using GraphPad Prism 4 software (GraphPad) with a final concentration of substrate (GluNA) from 0.005 to 5 mM with or without 4 mM Ca^2+. For evaluation of the substrate specificity of APA with or without 4 mM Ca^2+, the rate of hydrolysis of […] additional substrates, α-L-aspartate-β-naphthylamide (AspNA), α-L-alanine-β-naphthylamide (AlaNA) and basic α-L-lysine-β-naphthylamide (LysNA), was determined under the same experimental conditions as described for GluNA. The sensitivity of wild-type and mutated His-mAPAs to inhibition by [(3S)-3-amino-4-sulfanyl-butane-1-sulfonic acid] (EC33), glutamate-thiol (GluSH), glutamate-phosphonic-acid (GluPO3H2), methionine-thiol (MetSH) and lysine-thiol (LysSH) was determined by establishing dose-dependent inhibition curves for a final GluNA concentration of 0.5 mM in the presence or absence of 4 mM CaCl2. These compounds being linear competitive inhibitors, their Ki were calculated from the formula Ki = IC50/ (1+ [GluNA]/Km).

[2] = molecular target: T1, R878K mutated mAPA; experiment: Kinetic parameters of substrate hydrolysis by R878K His-mAPA
Protocol: as §1

[3] = molecular target: T2, wild-type mAPA (Mus musculus, UniProt P16406); experiment: Kinetic parameters of substrate hydrolysis by wild-type His-mAPA; conditions: for Km / kcat: wild type mAPA
T2 construct: made in house; host or cells: stably transfected CHO-K1 cells
T2 sequence (P16406 1-945): T1 sequence (P16406 1-945 R878K) with K878R
Protocol: as §1

Structure (SMILES): N[C@H](CS)CCS(=O)(=O)O [EC33, (3S)‐3‐amino‐4‐sulfanylbutane‐1‐sulfonic acid]
- Ki ([1]; 4 mM Ca2+): 1.52 ± 0.126 µM

Structure (SMILES): N[C@H](CS)CCC(=O)O [GluSH, (4S)-4-amino-5-sulfanylpentanoic acid]
- enhancement of inhibitory potency by 4 mM Ca2+ compared to Ki in the absence of Ca2+ [1]: 6.6 fold
- Ki ([1]; 4 mM Ca2+): 2.1 ± 0.44 µM
- Ki ([1]; absence of calcium): > 10 µM

Structure (SMILES): C[C@H](N)C(=O)Nc1ccc2ccccc2c1 [HAlaβNA, α-L-alanine-β-naphthylamide]
- Km ([2]; 4 mM Ca2+): 821 ± 142 µM
- kcat ([2]; 4 mM Ca2+): 26.2 ± 1.5 s⁻¹
- Km ([2]; no Ca2+): 670 ± 25.2 µM
- kcat ([2]; no Ca2+): 27.1 ± 4.8 s⁻¹
- Km ([3]; 4 mM Ca2+): 321 ± 41 µM
- kcat ([3]; 4 mM Ca2+): 17.4 ± 0.6 s⁻¹
- Km ([3]; no Ca2+): 394 ± 20 µM
- kcat ([3]; no Ca2+): 21.6 ± 0.5 s⁻¹

Structure (SMILES): N[C@@H](CC(=O)O)C(=O)Nc1ccc2ccccc2c1 [HAspβNA, α-L-aspartate-β-naphthylamide]
- Km ([2]; 4 mM Ca2+): 202 ± 5.7 µM
- kcat ([2]; 4 mM Ca2+): 42.2 ± 1.1 s⁻¹
- Km ([2]; no Ca2+): 3150 ± 328 µM
- kcat ([2]; no Ca2+): 0.2 ± 0.01 s⁻¹
- Km ([3]; 4 mM Ca2+): 54 ± 1.4 µM
- kcat ([3]; 4 mM Ca2+): 68.1 ± 1.3 s⁻¹
- Km ([3]; no Ca2+): 149 ± 15.6 µM
- kcat ([3]; no Ca2+): 10.4 ± 0.6 s⁻¹

Structure (SMILES): N[C@@H](CCC(=O)O)C(=O)Nc1ccc2ccccc2c1 [HGluβNA, α-L-glutamyl-β-naphthylamide]
- Km ([2]; 4 mM Ca2+): 269 ± 5.1 µM
- kcat ([2]; 4 mM Ca2+): 135 ± 1.3 s⁻¹
- Km ([2]; no Ca2+): 12500 ± 1450 µM
- kcat ([2]; no Ca2+): 3.12 ± 0.4 s⁻¹
- decrease in the affinity of the enzyme for the substrate compared to wild-type (factor) ([2]; presence of Ca2+): 6
- Km ([3]; 4 mM Ca2+): 39.1 ± 3.9 µM
- kcat ([3]; 4 mM Ca2+): 81.7 ± 4.0 s⁻¹
- Km ([3]; no Ca2+): 165 ± 13.5 µM
- kcat ([3]; no Ca2+): 13.9 ± 0.1 s⁻¹
- increase of cleavage efficiency (kcat/Km) by addition of Ca2+ ([3]; wild-type APA, 4 mM Ca2+ vs no Ca2+): 25 fold

Structure (SMILES): NCCCC[C@H](N)C(=O)Nc1ccc2ccccc2c1 [HLysβNA, α-L-lysine-β-naphthylamide]
- Km ([2]; 4 mM Ca2+): 229 ± 16.2 µM
- kcat ([2]; 4 mM Ca2+): 24.4 ± 0.5^n.s s-1
- Km ([2]; no Ca2+): 336 ± 54.3 µM
- kcat ([2]; no Ca2+): 9.0 ± 0.5 s⁻¹
- Km ([3]; 4 mM Ca2+): 244 ± 29.5 µM
- kcat ([3]; 4 mM Ca2+): 25.8 ± 0.2 s⁻¹
- Km ([3]; no Ca2+): 304 ± 49.7 µM
- kcat ([3]; no Ca2+): 16.4 ± 0.7 s⁻¹

Structure (SMILES): NCCCC[C@H](N)CS [LysSH, (2S)-2,6-diaminohexane-1-thiol]
- Ki ([1]; 4 mM Ca2+): 13.9 ± 0.39 µM
- Ki ([1]; absence of calcium): 0.378 ± 0.02 µM

Structure (SMILES): CSCC[C@H](N)CS [MetSH]
- Ki ([1]; 4 mM Ca2+): 5.14 ± 0.56 µM
- Ki ([1]; absence of calcium): 1.25 ± 0.057 µM
